These are literature values, as cited in patent US11602507B2, “Extended release oral composition of memantine or its salt and its process for the preparation” (TRIKONA PHARMACEUTICALS PVT. LTD, priority 2019, dated 2023).

As for `CC12CC3CC(C)(C1)CC(N)(C3)C2` [Memantine, 1-amino-3,5-dimethyladamantane], the solubility in water result is “highly soluble in water”.
